The values that follow come from patent US7365053B2, “Selective N-acylation of A82846 glygopeptides analogs” (priority 2000, dated 2008).

Values after ≈ are worked out from the molar mass of the structure shown.

The subject of test [1] is Staphylococcus aureus 446. Kind of test: Broth micro-dilution MIC. The test is classed as cell-based. Here is the method: (§1) The compounds of the present invention have in vitro activity against Gram-positive pathogenic bacteria. The antibacterial activity of the present compounds is illustrated in Tables III and IV. The minimal inhibitory concentrations (MICs) were determined using a standard broth micro-dilution assay. Table IV presents a comparison of the activity of illustrative compounds against representative vancomycin-resistant and vancomycin-sensitive enterococci (Enterococcus faecium and Enterococcus faecalis), mean geometric MIC (mcg/mL), as determined by the standard broth microdilution assay.
(§2) Assays for antimicrobial activity were performed using microbroth susceptibility testing methods as described by the NCCLS (National Committee for Clinical Laboratories Standards. 1990. Approved standard M7-A2. Methods for dilution antimicrobial susceptibility testing for bacteria that grow aerobically, 2 ed., Villanova Pa.). Brain-heart infusion medium (BHI) was used for testing of enterococci, and NCCLS recommendations for medium were followed for other bacteria.

The test system of test [2] is Staphylococcus haemolyticus 415. Kind of test: Broth micro-dilution MIC. The test is classed as cell-based. How it is done:
as §1, §2
A general note: In broth dilution the organism is exposed to a series of concentrations in liquid medium.

Test [3] has as its system Enterococcus faecalis 276. Kind of test: Broth micro-dilution MIC. The conditions noted are these: BHI medium. It counts as cell-based. How it is done:
as §1, §2

The subject of test [4] is Staphylococcus aureus X778. Kind of test: Broth micro-dilution MIC. The test is classed as cell-based. Here is the method: as §1, §2
Test [5] deals with Staphylococcus aureus SA1199. Kind of test: Broth micro-dilution MIC. The test is classed as cell-based. Here is the method: as §1, §2
For a further test, the system named is Escherichia coli EC14. Kind of test: Broth micro-dilution MIC. The test is classed as cell-based. How it is done:
as §1, §2

In test [6] the test system is Staphylococcus aureus S13E. Kind of test: Broth micro-dilution MIC. The test is classed as cell-based. Here is the method:
as §1, §2

Test [7] relates to Streptococcus pyogenes C203. Put plainly: Broth micro-dilution MIC. The test is classed as cell-based. Here is the method: as §1, §2
Test [8] concerns Staphylococcus aureus 491. Kind of test: Broth micro-dilution MIC. It counts as cell-based. Here is the method:
as §1, §2

Test [9] concerns Staphylococcus aureus X400. Kind of test: Broth micro-dilution MIC. It counts as cell-based. How it is done: as §1, §2
Test [10] has as its system Staphylococcus epidermidis 270. Kind of test: Broth micro-dilution MIC. It counts as cell-based. How it is done: as §1, §2
Test [11] relates to Enterococcus faecium 180-1. Kind of test: Broth micro-dilution MIC. The test is classed as cell-based. Conditions: BHI medium. How it is done:
as §1, §2

Test [12] concerns Enterococcus faecalis 2041. Kind of test: Broth micro-dilution MIC. The test is classed as cell-based. The conditions noted are these: BHI medium. Here is the method: as §1, §2
Test [13] has as its system Haemophilus influenzae RD. Put plainly: Broth micro-dilution MIC. It counts as cell-based. Here is the method: as §1, §2
The subject of another test is Enterococcus faecium 180. Put plainly: Broth micro-dilution MIC. Conditions: BHI medium. The test is classed as cell-based. Here is the method:
as §1, §2

Test [14] relates to Staphylococcus aureus 447. Put plainly: Broth micro-dilution MIC. The test is classed as cell-based. Here is the method:
as §1, §2

The test system of test [15] is Staphylococcus aureus 489. Put plainly: Broth micro-dilution MIC. The test is classed as cell-based. Here is the method:
as §1, §2

Test [16] concerns Staphylococcus haemolyticus 105. Put plainly: Broth micro-dilution MIC. It counts as cell-based. How it is done: as §1, §2
The test system of test [17] is Streptococcus pneumoniae P1. Put plainly: Broth micro-dilution MIC. It counts as cell-based. How it is done: as §1, §2
Test [18] has as its system Staphylococcus aureus SA1199A. Kind of test: Broth micro-dilution MIC. It counts as cell-based. Here is the method: as §1, §2
The test system of test [19] is Staphylococcus aureus SA1199B. Kind of test: Broth micro-dilution MIC. The test is classed as cell-based. Here is the method:
as §1, §2

Test [20] relates to Enterococcus gallinarum 245. Kind of test: Broth micro-dilution MIC. It counts as cell-based. Conditions: BHI medium. How it is done:
as §1, §2

The test system of test [21] is vancomycin-sensitive enterococci. Kind of test: In vitro activity against enterococci, broth microdilution. It counts as cell-based, Enterococcus faecium and Enterococcus faecalis. Conditions: representative vancomycin-sensitive enterococci (E. faecium and E. faecalis); BHI medium. How it is done: as §1, §2
The test system of test [22] is vancomycin-resistant enterococci. The description is as above. It counts as cell-based, Enterococcus faecium and Enterococcus faecalis. The conditions noted are these: representative vancomycin-resistant enterococci (E. faecium and E. faecalis); BHI medium. How it is done: as §1, §2

For `CCCCCCCCOc1ccc(C(=O)NC2(C)CC(OC3c4ccc(c(Cl)c4)Oc4cc5cc(c4OC4OC(CO)C(O)C(O)C4OC4CC(C)(N)C(O)C(C)O4)Oc4ccc(cc4Cl)C(O)C(NC(=O)C(CC(C)C)NC)C(=O)NC(CC(N)=O)C(=O)NC5C(=O)NC4C(=O)NC3C(=O)NC(C(=O)O)c3cc(O)cc(O)c3-c3cc4ccc3O)OC(C)C2O)cc1` (stereo not drawn) [Example 7], the MIC entry in [1] is “≦.06 μg/ml”; in test [2], 8 µg/mL (≈ 4.38 µM); in test [3], “≦.06 μg/ml”; in test [4], 0.125 µg/mL (≈ 0.0685 µM); in test [5] it was “≦.06 μg/ml”; with Escherichia coli EC14 it was over 64 µg/mL. Further, the MIC entry in [6] is “≦.06 μg/ml”; in [7], “≦.06 μg/ml”; in test [8] it was “≦.06 μg/ml”; in test [9] it was 0.125 µg/mL (≈ 0.0685 µM); in [10] it was “≦.06 μg/ml”; in [11], “≦.06 μg/ml”. Besides, the MIC entry is “≦.06 μg/ml” in [12]; over 64 µg/mL in [13]; 0.5 µg/mL (≈ 0.274 µM) in the test with Enterococcus faecium 180; 0.125 µg/mL (≈ 0.0685 µM) in test [14]; “≦.06 μg/ml” in test [15]; “≦.06 μg/ml” in [16]. Besides, the MIC result is “≦.06 μg/ml” in test [17], “≦.06 μg/ml” in test [18], “≦.06 μg/ml” in [19] and 8 µg/mL (≈ 4.38 µM) in [20]. Moreover, the “Mean geometric MIC, Vancomycin Sensitive Strains” value in [21] is 0.06 µg/mL. Besides, the “Mean geometric MIC, Vancomycin Resistant Strains” value in [22] worked out at 6.7 µg/mL.
For the compound `CCCCCCCC(=O)NC1(C)CC(OC2C(Oc3c4cc5cc3Oc3ccc(cc3Cl)C(OC3CC(C)(N)C(O)C(C)O3)C3NC(=O)C(NC(=O)C5NC(=O)C(CC(N)=O)NC(=O)C(NC(=O)C(CC(C)C)NC)C(O)c5ccc(c(Cl)c5)O4)c4ccc(O)c(c4)-c4c(O)cc(O)cc4C(C(=O)O)NC3=O)OC(CO)C(O)C2O)OC(C)C1O` (stereo not drawn) [Example 8, 4′-N-octanoyl-A82846B], the MIC is 2 µg/mL (≈ 1.16 µM) in test [1]; 16 µg/mL (≈ 9.31 µM) in test [2]; 0.5 µg/mL (≈ 0.291 µM) in [3]; 1 µg/mL (≈ 0.582 µM) in test [4]; 2 µg/mL (≈ 1.16 µM) in test [5]; over 64 µg/mL in the test with Escherichia coli EC14. In addition, the MIC in test [6] is 2 µg/mL (≈ 1.16 µM); in test [7] it was “≦.06 μg/ml”; in test [8], 0.25 µg/mL (≈ 0.145 µM); in test [9] it was 0.5 µg/mL (≈ 0.291 µM); in test [10] it was 8 µg/mL (≈ 4.65 µM); in test [11] it was 0.125 µg/mL (≈ 0.0727 µM). Moreover, the MIC in [12] was 0.25 µg/mL (≈ 0.145 µM); in test [13], 64 µg/mL (≈ 37.2 µM); with Enterococcus faecium 180, 2 µg/mL (≈ 1.16 µM); in [14] it was 8 µg/mL (≈ 4.65 µM); in test [15] it was 0.25 µg/mL (≈ 0.145 µM); in test [16], 0.5 µg/mL (≈ 0.291 µM). Besides, the MIC entry is “≦.06 μg/ml” in test [17], 0.25 µg/mL (≈ 0.145 µM) in test [18], 2 µg/mL (≈ 1.16 µM) in test [19] and 16 µg/mL (≈ 9.31 µM) in test [20]. Further, the “Mean geometric MIC, Vancomycin Sensitive Strains” value in test [21] came to 0.87 µg/mL. The “Mean geometric MIC, Vancomycin Resistant Strains” value in test [22] worked out at 54 µg/mL.
With `CCCCCCCC(=O)NC1(C)CC(OC2c3ccc(c(Cl)c3)Oc3cc4cc(c3OC3OC(CO)C(O)C(O)C3OC3CC(C)(N)C(O)C(C)O3)Oc3ccc(cc3Cl)C(O)C(NC(=O)C(CC(C)C)NC)C(=O)NC(CC(N)=O)C(=O)NC4C(=O)NC3C(=O)NC2C(=O)NC(C(=O)O)c2cc(O)cc(O)c2-c2cc3ccc2O)OC(C)C1O` (stereo not drawn) [Example 9, 6′-N-octanoyl-A82846B], the MIC in test [1] is 1 µg/mL (≈ 0.582 µM); in test [2] it was 16 µg/mL (≈ 9.31 µM); in test [3], 0.125 µg/mL (≈ 0.0727 µM); in test [4], 0.25 µg/mL (≈ 0.145 µM); in test [5], 0.5 µg/mL (≈ 0.291 µM); in the test on Escherichia coli EC14 it was over 64 µg/mL. Moreover, the MIC was 1 µg/mL (≈ 0.582 µM) in test [6]; “≦.06 μg/ml” in test [7]; 0.125 µg/mL (≈ 0.0727 µM) in test [8]; 0.5 µg/mL (≈ 0.291 µM) in [9]; 2 µg/mL (≈ 1.16 µM) in test [10]; 0.125 µg/mL (≈ 0.0727 µM) in test [11]. Further, the MIC was found to be 0.5 µg/mL (≈ 0.291 µM) in test [12]; 64 µg/mL (≈ 37.2 µM) in [13]; 32 µg/mL (≈ 18.6 µM) in the test with Enterococcus faecium 180; 2 µg/mL (≈ 1.16 µM) in test [14]; 0.125 µg/mL (≈ 0.0727 µM) in test [15]; 0.25 µg/mL (≈ 0.145 µM) in test [16]. The MIC result in [17] was “≦.06 μg/ml”; in test [18], 0.125 µg/mL (≈ 0.0727 µM); in [19], 0.5 µg/mL (≈ 0.291 µM); in test [20] it was 16 µg/mL (≈ 9.31 µM). For the same compound, in test [21], the “Mean geometric MIC, Vancomycin Sensitive Strains” value stood at 1.2 µg/mL. Further, the “Mean geometric MIC, Vancomycin Resistant Strains” value in test [22] was over 90 µg/mL.
